According to US20230226096A1 (Orna Therapeutics, Inc., priority 2020, published 2023):

Legend:
[1] = LNP particle size (Z-average) and polydispersity index by dynamic light scattering; type: physicochemical; settings: Table 36b, LNPs with circular RNA
Experimental: The microfluidic chamber is cleaned with ethanol and neMYSIS syringe pumps are prepared by loading a syringe with the RNA solution and another syringe with the ethanolic lipid. Both syringes are loaded and under the control of neMESYS software. The solutions are then applied to the mixing chip at an aqueous to organic phase ratio of 2 and a total flow rate of 22 ml/min (14.67 ml/min for RNA and 7.33 ml/min for the lipid solution. Both pumps are started synchronously. The mixer solution that flowed from the microfluidic chip is collected in 4×1 ml fractions with the first fraction being discarded as waste. The remaining solution containing the circRNA-transfer vehicles is exchanged by using G-25 mini desalting columns to 10 mM Tris-HCl, 1 mM EDTA, at pH 7.5, as described above. Following buffer exchange, the materials are characterized for size, and RNA entrapment through DLS analysis and Ribogreen assays, respectively.
(§1) Lipid Nanoparticles (LNPs) were formed using a Precision Nanosystems Ignite instrument with a ‘NextGen’ mixing chamber. […] A 3:1 aqueous to ethanol mixing ratio was used. The formulated LNP then were dialyzed in 1 L of water and exchanged 2 times over 18 hours. Dialyzed LNPs were filtered using 0.2 μm filter. Prior to in vivo dosing, LNPs were diluted in PBS. LNP sizes were determined by dynamic light scattering. A cuvette with 1 mL of 20 μg/mL LNPs in PBS (pH 7.4) was measured for Z-average using the Malvern Panalytical Zetasizer Pro. The Z-average and polydispersity index were recorded.
as §1, with “formulated LNPs were” for “formulated LNP”, “then” for “then were”
as §1, with “formulated LNPs were” for “formulated LNP”, “then” for “then were”, “of 1×PBS” for “of water”

[2] = RNA encapsulation / entrapment by Ribogreen assay; type: physicochemical; settings: Table 36b, LNPs with circular RNA
Experimental: A QUANT-IT™ RIBOGREEN® RNA assay (Invitrogen Corporation Carlsbad, Calif.) can be used to evaluate the encapsulation of circRNA by the nanoparticle composition. The samples are diluted to a concentration of approximately 5 μg/mL or 1 μg/mL in a TE buffer solution (10 mM Tris-HCl, 1 mM EDTA, pH 7.5). 50 μL of the diluted samples are transferred to a polystyrene 96 well plate and either 50 μL of TE buffer or 50 μL of a 2-4% Triton X-100 solution is added to the wells. The plate is incubated at a temperature of 37° C. for 15 minutes. The RIBOGREEN® reagent is diluted 1:100 or 1:200 in TE buffer, and 100 μL of this solution is added to each well. The fluorescence intensity can be measured using a fluorescence plate reader (Wallac Victor 1420 Multilabel Counter; Perkin Elmer, Waltham, Mass.) at an excitation wavelength of, for example, about 480 nm and an emission wavelength of, for example, about 520 nm. The fluorescence values of the reagent blank are subtracted from that of each of the samples and the percentage of free circRNA is determined by dividing the fluorescence intensity of the intact sample (without addition of Triton X-100) by the fluorescence value of the disrupted sample (caused by the addition of Triton X-100). C.
For transfer vehicle compositions including RNA, a QUANT-IT™ RIBOGREEN® RNA assay (Invitrogen Corporation Carlsbad, Calif.) can be used to evaluate the encapsulation of RNA by the transfer vehicle composition. […] The fluorescence intensity can be measured using a fluorescence plate reader (Wallac Victor 1420 Multilabel Counter; Perkin Elmer, Waltham, Mass.) at an excitation wavelength of, for example, about 480 nm and an emission wavelength of, for example, about 520 nm. The fluorescence values of the reagent blank are subtracted from that of each of the samples and the percentage of free RNA is determined by dividing the fluorescence intensity of the intact sample (without addition of Triton X-100) by the fluorescence value of the disrupted sample (caused by the addition of Triton X-100). […]

1C1C7 cells [3] = experiment: Modified IRES, stop codon cassettes, 5′ UTR variants: GLuc luminescence in 1C1C7 cells; type: cell-based; settings: 24 and 48 hours after transfection
From the text: This example describes modifications of CK-739, AP-748, and PV-743 IRES sequences, including mutations alternative translation initiation sites.
This example describes modifications of circular RNAs by introducing stop codon or cassette variants. […] 1C1C7 cells were transfected with the circular RNAs.
This example describes modifications of circular RNAs by inserting 5′ UTR variants. […] 1C1C7 cells were transfected with the circular RNAs.

HEK293 cells = experiment: GLuc luminescence by IRES in HEK293 cells; settings: 100 ng circularization reaction per 20,000 cells
1C1C7 cells [4] = experiment: GLuc luminescence and functional stability by IRES in 1C1C7 cells; settings: 100 ng circularization reaction per 20,000 cells

CCCCCCCCCCCCCCSCCOC(=O)CCN(CCCn1ccnc1C)CCC(=O)OCCSCCCCCCCCCCCCCC [22-S14, bis(2-(tetradecylthio)ethyl) 3,3′-((3-(2-methyl-1H-imidazol-1-yl)propyl)azanediyl)dipropionate]
PDI [1]: 0.05
Z-Average(nm) [1]: 64 nm
RNA Entrapment(%) [2]: 97%

CCCCCCCCCCCCCCSCCOC(=O)CCN(CCCn1ccnc1)CCC(=O)OCCSCCCCCCCCCCCCCC [93-S14, bis(2-(tetradecylthio)ethyl) 3,3′-((3-(1H-imidazol-1-yl)propyl)azanediyl)dipropionate]
PDI [1]: 0.04
Z-Average(nm) [1]: 74 nm
RNA Entrapment(%) [2]: 95%

CCCCCCCCC(CCCCCC)C(=O)OCCCCCCN(CCCCCCOC(=O)C(CCCCCC)CCCCCCCC)CCCn1ccnc1 (stereo not shown) [Lipid 26, Table 10a]
PDI [1]: 0.04
Z-Average(nm) [1]: 84 nm
RNA Entrapment(%) [2]: 96%

UTR2: 5′ UTR variant: canonical Kozak sequence with "a 36-nucleotide unstructured/low GC spacer sequence" added (DNA AATAAGAGAGAAAAGAAGAGTAAGAAGAAATATAAGAGCCACC; expressed or natural sequence)
translation / expression (luminescence in supernatant) (1C1C7 cells [3]): more effective

UTR3: 5′ UTR variant: "a higher-GC/structured spacer with a kozak sequence" (DNA CGAACTAGTATTCTTCTGGTCCCCACAGACTCAGAGAGAACCCGCCACC; expressed or natural sequence)
translation / expression (luminescence in supernatant) (1C1C7 cells [3]): did not show the same benefit

B1: Crohivirus B IRES: "Crohivirus B (CrVB) IRES", one of the selected IRES sequences, SEQ ID NOs: 348-389 (nucleic acid)
DNA: GTATAAGAGACAGGTGTTTGCCTTGTCTTCGGACTGGCATCTTGGGACCAACCCCCCTTTTCCCCAGCCATGGGTTAAATGGCAATAAAGGACGTAACAACTTTGTAACCATTAAGCTTTGTAATTTTGTAACCACTAAGCTTTGTGCACATAATGTAACCATCAAGCTTGTTAGTCCCAGCAGGAGGTTTGCATGCTTGTAGCCGAAATGGGGCTCGACCCCCCATAGTAGGATACTTGATTTTGCATTCCATTGTGGACCTGCAAACTCTACACATAGAGGCTTTGTCTTGCATCTAAACACCTGAGTACAGTGTGTACCTAGACCCTATAGTACGGGAGGACCGTTTGTTTCCTCAATAACCCTACATAATAGGCTAGGTGGGCATGCCCAATTTGCAAGATCCCAGACTGGGGGTCGGTCTGGGCAGGGTTAGATCCCTGTTAGCTACTGCCTGATAGGGTGGTGCTCAACCATGTGTAGTTTAAATTGAGCTGTTCATATACC
modifications: Crohivirus B
luminescence at 24 hours (HEK293 cells): highest luminescence

B2: Salivirus A SZ-1 (nucleic acid)
DNA: TCTGTCCTCACCCCATCTTCCCTTCTTTCCTGCACCGTTACGCTTACTCGCATGTGCATTGAGTGGTGCACGTGCTTGAACAAACAGCTACACTCACATGGGGGCGGGTTTTCCCGCCCTGCGGCCTCTCGCGAGGCCCACCCCTCCCCTTCCTCCCATAACTACAGTGCTTTGGTAGGTAAGCATCCTGATCCCCCGCGGAAGCTGCTCACGTGGCAACTGTGGGGACCCAGACAGGTTATCAAAGGCACCCGGTCTTTCCGCCTTCAGGAGTATCCCTGCTAGTGAATTCTAGTAGGGCTCTGCTTGGTGCCAACCTCCCCCAAATGCGCGCTGCGGGAGTGCTCTTCCCCAACTCACCCTAGTATCCTCTCATGTGTGTGCTTGGTCAGCATATCTGAGACGATGTTCCGCTGTCCCAGACCAGTCCAGTAATGGACGGGCCAGTGTGCGTAGTCGTCTTCCGGCTTGTCCGGCGCATGTTTGGTGAACCGGTGGGGTAAGGTTGGTGTGCCCAACGCCCGTACTTTGGTGATACCTCAAGACCACCCAGGAATGCCAGGGAGGTACCCCGCTTCACAGCGGGATCTGACCCTGGGCTAATTGTCTACGGTGGTTCTTCTTGCTTCCACTTCTTTCTACTGTTCATG
luminescence at 24 hours (1C1C7 cells [4]): high luminescence
